From US20170152239A1, “BENZAMIDE AND HETEROBENZAMIDE COMPOUNDS” (PFIZER INC., priority 2012, published 2017)

Columns and labels:
Assay type in all cases: biochemical
[1] = target: WT EZH2 (EZH2 4 protein complex: EZH2, EED, SUZ12, RbAp48) (Homo sapiens, UniProt Q15910); assay: WT EZH2 nucleosome assay; conditions: compound at 20 μM; nucleosome assay
Outline: (§1)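 Radiometric methyltransferase assay: 5 nM EZH2 four-protein complex, 1.5 μM 3H-SAM, 25 μg/mL HeLa oligonucleosomes, 50 nM recombinant H1 in 100 mM Tris pH 8.5, 4 mM DTT, 0.01% Tween-20. 60 min reaction, TCA quench, filter capture, scintillation counting; IC50 from 11-point 4-parameter fit; % effect at 20 μM.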

[2] = target: WT EZH2 (EZH2 4 protein complex: EZH2, EED, SUZ12, RbAp48) (Homo sapiens, UniProt O75530+Q09028+Q15022+Q15910); assay: WT EZH2 nucleosome assay; conditions: nucleosome assay, 5 nM EZH2 4-protein complex, 1.5 μM SAM; read-out: WT EZH2 IC50
Sequence of WT EZH2 (EZH2 4 protein complex: EZH2, EED, SUZ12, RbAp48) (Homo sapiens, UniProt O75530+Q09028+Q15022+Q15910) (Q15910 whole entry): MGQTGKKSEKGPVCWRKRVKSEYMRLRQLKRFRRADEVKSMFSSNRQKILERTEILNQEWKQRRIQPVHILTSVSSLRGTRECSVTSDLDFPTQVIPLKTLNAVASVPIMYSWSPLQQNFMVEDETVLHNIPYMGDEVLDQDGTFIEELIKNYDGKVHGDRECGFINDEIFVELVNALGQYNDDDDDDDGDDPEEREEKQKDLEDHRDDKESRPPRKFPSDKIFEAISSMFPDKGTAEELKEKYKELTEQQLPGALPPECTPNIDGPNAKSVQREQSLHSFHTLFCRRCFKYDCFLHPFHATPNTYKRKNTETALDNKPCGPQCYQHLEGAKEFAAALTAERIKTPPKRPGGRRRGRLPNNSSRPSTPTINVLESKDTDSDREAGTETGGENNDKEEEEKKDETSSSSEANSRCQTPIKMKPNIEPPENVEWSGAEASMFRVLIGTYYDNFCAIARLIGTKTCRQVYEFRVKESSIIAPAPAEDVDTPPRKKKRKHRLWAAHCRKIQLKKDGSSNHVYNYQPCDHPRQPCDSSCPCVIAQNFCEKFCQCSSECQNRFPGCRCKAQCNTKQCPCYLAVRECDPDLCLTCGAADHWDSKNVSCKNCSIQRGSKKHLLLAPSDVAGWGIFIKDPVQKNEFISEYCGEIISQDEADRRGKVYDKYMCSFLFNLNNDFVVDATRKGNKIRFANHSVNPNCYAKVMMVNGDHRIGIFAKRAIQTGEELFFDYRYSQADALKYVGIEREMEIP
Sequence of WT EZH2 (EZH2 4 protein complex: EZH2, EED, SUZ12, RbAp48) (Homo sapiens, UniProt O75530+Q09028+Q15022+Q15910) (O75530 whole entry partner): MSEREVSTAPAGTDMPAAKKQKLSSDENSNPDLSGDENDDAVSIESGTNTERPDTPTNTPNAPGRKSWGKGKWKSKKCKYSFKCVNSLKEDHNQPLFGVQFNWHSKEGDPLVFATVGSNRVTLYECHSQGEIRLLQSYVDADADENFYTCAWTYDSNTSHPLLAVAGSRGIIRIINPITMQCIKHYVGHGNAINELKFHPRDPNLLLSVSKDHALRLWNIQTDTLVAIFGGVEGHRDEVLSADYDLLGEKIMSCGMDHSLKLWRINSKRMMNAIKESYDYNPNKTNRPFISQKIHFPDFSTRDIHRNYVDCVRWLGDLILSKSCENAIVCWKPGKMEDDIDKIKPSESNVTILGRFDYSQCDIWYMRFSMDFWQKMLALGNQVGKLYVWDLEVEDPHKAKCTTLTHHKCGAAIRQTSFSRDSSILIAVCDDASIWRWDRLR
Sequence of WT EZH2 (EZH2 4 protein complex: EZH2, EED, SUZ12, RbAp48) (Homo sapiens, UniProt O75530+Q09028+Q15022+Q15910) (Q15022 whole entry partner): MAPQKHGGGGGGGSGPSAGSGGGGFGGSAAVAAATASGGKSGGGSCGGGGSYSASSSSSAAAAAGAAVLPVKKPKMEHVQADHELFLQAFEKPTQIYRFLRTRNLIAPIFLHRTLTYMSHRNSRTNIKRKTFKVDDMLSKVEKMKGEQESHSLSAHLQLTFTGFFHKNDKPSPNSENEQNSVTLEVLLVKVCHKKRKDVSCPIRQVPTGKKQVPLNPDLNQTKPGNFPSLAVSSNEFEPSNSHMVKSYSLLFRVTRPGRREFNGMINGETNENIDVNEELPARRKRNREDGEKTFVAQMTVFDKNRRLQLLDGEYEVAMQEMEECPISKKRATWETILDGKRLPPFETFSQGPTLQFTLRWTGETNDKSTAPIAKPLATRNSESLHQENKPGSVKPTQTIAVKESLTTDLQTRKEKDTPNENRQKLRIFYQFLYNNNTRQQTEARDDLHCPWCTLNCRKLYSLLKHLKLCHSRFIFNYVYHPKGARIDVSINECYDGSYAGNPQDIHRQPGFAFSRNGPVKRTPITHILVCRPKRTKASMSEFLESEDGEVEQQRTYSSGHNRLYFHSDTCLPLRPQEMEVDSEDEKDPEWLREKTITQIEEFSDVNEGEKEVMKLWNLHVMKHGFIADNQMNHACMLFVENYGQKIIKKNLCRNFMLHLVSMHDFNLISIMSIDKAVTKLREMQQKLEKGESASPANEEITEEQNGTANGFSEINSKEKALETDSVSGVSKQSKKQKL
Sequence of WT EZH2 (EZH2 4 protein complex: EZH2, EED, SUZ12, RbAp48) (Homo sapiens, UniProt O75530+Q09028+Q15022+Q15910) (Q09028 whole entry partner): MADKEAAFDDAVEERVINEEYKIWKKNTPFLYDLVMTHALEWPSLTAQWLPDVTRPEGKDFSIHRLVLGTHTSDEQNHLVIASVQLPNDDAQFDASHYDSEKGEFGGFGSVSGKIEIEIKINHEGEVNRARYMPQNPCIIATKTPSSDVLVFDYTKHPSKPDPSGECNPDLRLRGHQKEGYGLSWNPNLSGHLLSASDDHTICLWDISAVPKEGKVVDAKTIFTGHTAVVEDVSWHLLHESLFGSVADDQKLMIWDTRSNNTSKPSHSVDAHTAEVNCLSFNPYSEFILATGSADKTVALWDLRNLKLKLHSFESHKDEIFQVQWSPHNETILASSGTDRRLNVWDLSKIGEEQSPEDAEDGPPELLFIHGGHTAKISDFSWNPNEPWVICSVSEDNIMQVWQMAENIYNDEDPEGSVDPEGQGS
Outline: as §1

EZH2PRC2 mutant Y641N = EZH2PRC2 mutant Y641N (Homo sapiens, UniProt Q15910, Y641N); assay: EZH2PRC2 mutant Y641N nucleosome assay; conditions: read-out: EZH2PCR2 Mutant Y641N IC50
Sequence of EZH2PRC2 mutant Y641N (Q15910 whole entry Y641N): as the sequence (Q15910 whole entry) above, with Y641N counted along it
Sequence of EZH2PRC2 mutant Y641N (O75530 whole entry partner): as the sequence (O75530 whole entry partner) above
Sequence of EZH2PRC2 mutant Y641N (Q15022 whole entry partner): as the sequence (Q15022 whole entry partner) above
Sequence of EZH2PRC2 mutant Y641N (Q09028 whole entry partner): as the sequence (Q09028 whole entry partner) above
Procedure: Nucleosome Assay Protocol:
A. Compound preparation • 1. Prepare 10 mM stock solutions in 100% DMSO from solid material • 2. Serial dilute 10 mM compound stocks either 2 or 3-fold in 100% DMSO to generate compounds for 11 point dose response
B. Reagent preparation • 1. Prepare 1× assay buffer containing 100 mM Tris pH 8.5, 4 mM DTT and 0.01% Tween-20 • 2. Dilute purified HeLA oligonucleosomes and recombinant histone H1 (New England Biolabs) in assay buffer to 1.67×. • 3. Dilute EZH2 4 protein complex (EZH2, EED, SUZ12, RbAp48) to 3.5× in assay buffer • 4. Prepare 10×^3H SAM solution in assay buffer using 0.94 μCi/well of radioactive SAM (Perkin Elmer) and sufficient non-labeled SAM (Sigma) for 1.5 μM final concentration. • 5. Dilute TCA to 20% in DI water
C. Enzyme reaction • 1. Final reaction conditions are 5 nM EZH2 4-protein complex, 1.5 μM SAM, 25 μg/mL oligonucleosomes, 50 nM rH1 in a 50 μl reaction volume. • 2. Add 1 μl of diluted compound to the assay plate (96-well V-bottom polypropylene plates) or 1 μl of DMSO for control wells. • 3. Add 30 μl of nucleosomes to the assay plate • 4. Add 14 μl of EZH2 4 protein complex to the assay plate • 5. Add 5 μl of ^3H SAM to start the reaction. • 6. Stop the reaction after 60 minutes with the addition of 100 μl of 20% TCA • 7. Transfer 150 μl of quenched reaction into a prepared filterplate (Millipore #MSIPN4B10) • 8. Apply vacuum to the filterplate to filter the reaction mix through the membrane. • 9. Wash the filterplate with 8×200 μl of PBS, blot dry and dry in an oven for 30 minutes • 10. Add 50 μl of microscint-20 scintillation fluid (Perkin Elmer) to each well, wait 30 minutes and count on a liquid scintillation counter.
D. Data analysis • 1. IC50 values were determined by fitting the data to a 4-parameter IC50 equation using proprietary curve fitting software.
Wild type (WT) EZH2% Effect at 20 μM and IC50 values (μM) generated in WT EZH2 or EZH2PRC2 mutant Y641N nucleosome assays are provided in Table 3 below. A blank entry in the table indicates the data was not generated in that assay.

Sequence of WT EZH2 (EZH2 4 protein complex: EZH2, EED, SUZ12, RbAp48) (Homo sapiens, UniProt Q15910) (Q15910 whole entry): as the sequence (Q15910 whole entry) above
Sequence of WT EZH2 (EZH2 4 protein complex: EZH2, EED, SUZ12, RbAp48) (Homo sapiens, UniProt Q15910) (O75530 whole entry partner): as the sequence (O75530 whole entry partner) above
Sequence of WT EZH2 (EZH2 4 protein complex: EZH2, EED, SUZ12, RbAp48) (Homo sapiens, UniProt Q15910) (Q15022 whole entry partner): as the sequence (Q15022 whole entry partner) above
Sequence of WT EZH2 (EZH2 4 protein complex: EZH2, EED, SUZ12, RbAp48) (Homo sapiens, UniProt Q15910) (Q09028 whole entry partner): as the sequence (Q09028 whole entry partner) above

% Effect in WT EZH2 at 20 μM [1] [%]	IC50 [2] [µM]	IC50 (EZH2PRC2 mutant Y641N) [µM]	SMILES
83.654	0.87	11.2	Cc1cc(C)c(CNC(=O)c2cccc(OC(C)C)c2C)c(=O)[nH]1 [Example 32, N-((4,6-dimethyl-2-oxo-1,2-dihydropyridin-3-yl)methyl)-3-isopropoxy-2-methylbenzamide]
93.582	1.63		Cc1cc(C)c(CNC(=O)c2cccc(OC(C)C)c2Cl)c(=O)[nH]1 [Example 46, 2-chloro-N-[(4,6-dimethyl-2-oxo-1,2-dihydropyridin-3-yl)methyl]-3-isopropoxy-benzamide]
71.459	4.51		Cc1cc(C)c(CNC(=O)c2ccnc(OC(C)C)c2Cl)c(=O)[nH]1 [Example 65, 3-chloro-N-[(4,6-dimethyl-2-oxo-1,2-dihydropyridin-3-yl)methyl]-2-isopropoxyiso-nicotinamide]
76.288	4.88		COc1cccc(C(=O)NCc2c(C)cc(C)[nH]c2=O)c1Br [Example 66, 2-bromo-N-[(4,6-dimethyl-2-oxo-1,2-dihydropyridin-3-yl)methyl]-3-methoxybenza-mide]
71.325	7.52	43.1	COc1cccc(C(=O)NCc2c(C)cc(C)[nH]c2=O)c1Cl [Example 79, 2-chloro-N-[(4,6-dimethyl-2-oxo-1,2-dihydropyridin-3-yl)methyl]-3-methoxybenza-mide]
64.416	9.38		Cc1cc(C)c(CNC(=O)c2c(F)ccc(OC(C)C)c2Cl)c(=O)[nH]1 [Example 86, 2-chloro-N-[(4,6-dimethyl-2-oxo-1,2-dihydropyridin-3-yl)methyl]-6-fluoro-3-isopropoxy-benzamide]
43.834	27.1		COc1c(OC(C)C)cccc1C(=O)NCc1c(C)cc(C)[nH]c1=O [Example 113, N-[(4,6-dimethyl-2-oxo-1,2-dihydropyridin-3-yl)methyl]-3-isopropoxy-2-methoxy-benzamide]
38.993	54.3		CCCc1c(OC)cccc1C(=O)NCc1c(C)cc(C)[nH]c1=O [Example 128, N-[(4,6-dimethyl-2-oxo-1,2-dihydropyridin-3-yl)methyl]-3-methoxy-2-propylbenzamide]
62.306	141	> 200	COc1cccc(C(=O)NCc2c(C)cc(C)[nH]c2=O)c1C#N [Example 135, 2-cyano-N-[(4,6-dimethyl-2-oxo-1,2-dihydropyridin-3-yl)methyl]-3-methoxybenz-amide]
20.924	167		COc1cccc(C(=O)NCc2c(C)cc(C)[nH]c2=O)c1F [Example 137, N-[(4,6-dimethyl-2-oxo-1,2-dihydropyridin-3-yl)methyl]-2-fluoro-3-methoxybenz-amide]
44.736	172		Cc1cc(C)c(CNC(=O)c2ccnc(OC(C)C)c2F)c(=O)[nH]1 [Example 138, N-[(4,6-dimethyl-2-oxo-1,2-dihydropyridin-3-yl)methyl]-3-fluoro-2-isopropoxyiso-nicotinamide]

Continued, compound first:

SMILES	% Effect in WT EZH2 at 20 μM [1] [%]	IC50 [2] [µM]	IC50 (EZH2PRC2 mutant Y641N) [µM]
Cc1cc(C)c(CNC(=O)c2cc(Cl)cc(-c3ccnn3C)c2C)c(=O)[nH]1 [Example 5, 5-chloro-N-[(4,6-dimethyl-2-oxo-1,2-dihydropyridin-3-yl)methyl]-2-methyl-3-(1-methyl-1H-pyrazol-5-yl)benzamide]	94.88	0.45	
Cc1cc(C)c(CNC(=O)c2cc(-c3cnn(C)c3)cc(OC(C)C)c2Cl)c(=O)[nH]1 [Example 26, 2-chloro-N-[(4,6-dimethyl-2-oxo-1,2-dihydropyridin-3-yl)methyl]-3-isopropoxy-5-(1-methyl-1H-pyrazol-4-yl)benzamide]	93.705	0.93	
Cc1cc(C)c(CNC(=O)c2cc(-c3cnn(C)c3)nc(OC(C)C)c2Cl)c(=O)[nH]1 [Example 33, 3-chloro-N-[(4,6-dimethyl-2-oxo-1,2-dihydropyridin-3-yl)methyl]-2-isopropoxy-6-(1-methyl-1H-pyrazol-4-yl)isonicotinamide]	92.965	0.78	
Cc1cc(-c2cc(Cl)cc(C(=O)NCc3c(C)cc(C)[nH]c3=O)c2C)n(C)n1 [Example 77, 5-chloro-N-[(4,6-dimethyl-2-oxo-1,2-dihydropyridin-3-yl)methyl]-3-(1,3-dimethyl-1H-pyrazol-5-yl)-2-methylbenz-amide]	69.743	7.03	
Cc1cc(C)c(CNC(=O)c2nccc(OC(C)C)c2C)c(=O)[nH]1 [Example 82, N-[(4,6-dimethyl-2-oxo-1,2-dihydropyridin-3-yl)methyl]-4-isopropoxy-3-methylpyridine-2-carboxamide]	69.830	7.79	
Cc1cc(C)c(CNC(=O)c2ncnc(OC(C)C)c2Cl)c(=O)[nH]1 [Example 85]	69.248	9.12	
COc1ccc(OC)c(C(=O)NCc2c(C)cc(C)[nH]c2=O)c1Cl [Example 119, 2-chloro-N-[(4,6-dimethyl-2-oxo-1,2-dihydropyridin-3-yl)methyl]-3,6-dimethoxy-benzamide]	44.087	37.4	
COc1cc(OC)c(Cl)c(C(=O)NCc2c(C)cc(C)[nH]c2=O)c1Cl [Example 126, 2,6-dichloro-N-[(4,6-dimethyl-2-oxo-1,2-dihydropyridin-3-yl)methyl]-3,5-dimethoxybenz-amide]	38.121	52	
COc1ccc(C(=O)NCc2c(C)cc(C)[nH]c2=O)c(Cl)c1OC [Example 127, 2-chloro-N-[(4,6-dimethyl-2-oxo-1,2-dihydropyridin-3-yl)methyl]-3,4-dimethoxy-benzamide]	35.052	53.3	
Cc1cc(C)c(CNC(=O)c2c(Cl)ccc(OCCN3CCCC3)c2Cl)c(=O)[nH]1 [Example 129, 2,6-dichloro-N-[(4,6-dimethyl-2-oxo-1,2-dihydropyridin-3-yl)methyl]-3-(2-pyrrolidin-1-ylethoxy)benza-mide]	32.145	54.3	
Cc1cc(C)c(CNC(=O)c2cc(-c3ccc(N4CCN(C)CC4)nc3)cc(-c3ccnn3C)c2C)c(=O)[nH]1 [Example 149, N-[(4,6-dimethyl-2-oxo-1,2-dihydropyridin-3-yl)methyl]-2-methyl-5-[6-(4-methylpiperazin-1-yl)pyridin-3-yl]-3-(1-methyl-1H-pyrazol-5-yl)benzamide]		0.0342	0.198
Cc1cc(C)c(CNC(=O)c2cc(-c3ccc(CN4CCOCC4)cc3)cc(-c3ccnn3C)c2C)c(=O)[nH]1 [Example 150, N-[(4,6-dimethyl-2-oxo-1,2-dihydropyridin-3-yl)methyl]-4-methyl-5-(1-methyl-1H-pyrazol-5-yl)-4′-(morpholin-4-ylmethyl)bi-phenyl-3-carboxamide]		0.113	0.679
